Where a SMILES comes first, the peptide text is derived from it. Bridges are numbered along the chain shown (N, C = ends).
Key:
[1] = SS bond reduction by DTT monitored by 1H NMR; assay type: physicochemical; conditions: 1.7 mM protein, twofold excess of DTT, 15 °C; for DTT: Conversion rate / DTT: Elapsed time to steady state: pH 7; for DTT: t1/2 of reduction: pH 7, calculated from k1 (Eq. 12); for DTT: k1: pH 7, parameter estimation (phase 1 data)
Protocol: An appropriate reduction protocol was required to unambiguously determine the 3D structures of the above‐introduced pure reduced states. Thus, in agreement with the above discussion, only mild conditions (15 °C and twofold molar excess of […]) were used for the reduction of the four different miniproteins. Determining the structural properties and reduction rates under the same conditions allowed us to elucidate the basis of the observed differences in the reduction rates. […] It appears as if “cutting back” on the α‐helical segment strongly affects the SS bond reducibility, even though the SS bonds of all four models are near the surfaces (Figure 7 A). To our great surprise, we recorded three orders of magnitude differences between the reduction rate constants (Table 3). Whereas the reduction of E2_SS is still extremely fast, tE2_SS/1/2 <≈1 min, that of E5_SS occurs on the timescale of minutes: tE5_SS/1/2 ≈14 min. […] The conversion rate was close to complete for the shorter peptide of E2_SS, whereas the reduction of E19_SS was only 88 % complete. The kinetic parameters of all four model proteins were determined by using a twofold molar excess of DTT, at pH 7, and T=15 °C.
Monitoring reduction kinetics: Peptide samples were prepared between 0.8 and 1.8 mM in 50 mM NaH2PO4–Na2HPO4 buffer (600 μL, pH 6.95), with 10 % D2O. A 0.1 M solution of NaOH was used to set the pH to 7. Sodium trimethylsilylpropanesulfonate (DSS) was added as the internal proton reference standard, set to δ=0.0 ppm under all conditions. ^1H,^1H 2D homonuclear spectra were recorded for the oxidized peptide; thereafter, upon the addition of a different excess of 0.5 M TCEP or DTT, reduction was observed by recording a series of 1D ^1H spectra (ns=64 or 128 scans). Finally, at the end point, ^1H,^1H homonuclear 2D spectra were recorded on the reduced peptide. Data sets were processed by using TopSpin 3.2 software. The conversion rate was determined by using the relative integral of the Trp Hϵ1 signal in the oxidized (IntOX) and reduced (IntRED) form. Each integral was normalized to the integral of DSS. The concentrations were determined by the ratio of the oxidized and reduced integrals and the initial protein concentration.
Parameter estimation: Kinetic parameter estimation was based on the integral of selected NMR signals considered to be proportional to the concentration of the relevant species. The mechanism taken into account is that given by Equations (8), (9), (10), (11):(8) SS+Red→k12SH+Ox (9) 2SH+O2→k2SS (10) [drawing 1] (11) [drawing 2]
in which SS is the […] model protein with an intramolecular S−S bond; 2 SH is the same protein with the S−S bond reduced to two −SH groups; and the symbol Ø means a different phase from that of the reaction mixture, that is, the polymer aggregate as a sink in the first case and the gas phase as a source in the second case.
For parameter estimation, the COPASI 4.16 (Build 104) Biochemical System Simulator software (http://copasi.org/) was used, with the parameter estimation option of the Levenberg–Marquardt method.
To determine the half‐life and initial concentration of the SS species, a kinetic analysis of the temporal evolution of the reactions was performed. […] From the kinetic analysis, the initial concentration of oxygen ([O2]0) could also be estimated, except for one case in which the uncertainty of this parameter was very large, due to the lack of sufficient experimental data.
Because reduction follows second‐order kinetics, the half‐life (t 1/2) of model proteins also depends on the actual concentration of the RA in the reaction mixture [Eq. (12):(12) t1/2=1/k1(cRed,0-cSS,0)ln2-cSS,0/cRed,0

[2] = Degree of fold by FUV-ECD (CCA+ ensemble deconvolution); assay type: physicochemical; conditions: for Degree of the fold by FUV-ECD: T=15 °C, c(protein)=20–30 μM, pH≈7, joint CCA+ deconvolution of 204 T-dependent FUV-ECD spectra; for difference in folded fraction between SS variant and parent: at 4 °C, FUV-ECD ensemble deconvolution
From the text: Circular dichroism (CD) spectroscopy is increasingly recognized as very sensitive indicator of protein conformation,58, 59 relying on a plethora of electronic transitions. The FUV‐ECD spectra of Trp‐cage proteins (e.g., Exenatide, E19, E19_SS) are typically the weighted sums of the C‐ (folded and highly helical) and U‐type (unfolded) base curves (Figure 2 A), as assigned and verified by means of NMR spectroscopy.60, 61 As the temperature increases, the shape of the FUV‐ECD spectra changes: those of the parent proteins—E2, E5, E11, and E19—acquire more and more U‐type characteristics, as they unfold gradually. The temperature‐dependent FUV‐ECD spectra for all four SS bond enforced model peptides were recorded between 5 and 85 °C (in steps of 5 °C, resulting in 17 spectra for each protein; Figure S1 in the Supporting Information). Aside from E2_SS, the SS‐bond‐containing mutants have similar FUV‐ECD spectra to that of their parent proteins at low temperatures. On the other hand, because the SS bond makes the 3D folds of SS variants more rigid, they preserve their C‐type characteristics better and delay unfolding, even at higher temperatures. Once the SS bond is reduced (see below for details), the spectral properties of the SH variants revert to those of the parent proteins. Their 3D‐scaffold compactness decreases as the temperature increases; this is less apparent in the case of E2 and E2_2SH because they both already present an ensemble of dynamic backbone structures at 5 °C.
Ensemble deconvolution62, 63 of the 204 (12×17) ECD spectra, f(λ, T), made the quantitative analysis of the relative abundance of secondary structural elements belonging to each peptide in each state possible because the pure ECD curves were successfully assigned.60, 64, 65, 66 The results in Figure 2 B indicate that 1) the SS bond stabilizes the less folded protein scaffolds more effectively, for example, whereas the difference at 4 °C between the E2 and E2_SS folded fraction is 48 %, the same difference between E5 and E5_SS is 14 %; in the case of E11 and E11_SS, it is only 28 %, and for E19 and E19_SS it is 7 % (Figure 2 D). 2) The ratio of the folded, helical components increases upon going from E2 to E5 and E11; however, the compact α‐helical content of E19_SS, E19_2SH, and E19 is lower than those of E11_SS, E11_2SH, and E11 because the unfolded eight‐residue‐long N‐terminal part elevates the overall backbone dynamics, which destabilizes the compact 3D fold. 3) All four reduced proteins (E2_2SH, E5_2SH, E11_2SH, E19_2SH) have a higher helix content (≈7–15 %) than that of the parent proteins over the entire temperature range. 4) The 3D folds stabilized by SS bonds are less sensitive to temperature (Figure 2 C, D).
ECD: FUV‐ECD spectra were recorded on a Jasco J810 spectrophotometer by using a 1.0 mm path length cuvette with protein concentrations of 20–30 μM. Data accumulation was performed over a range of 185–260 nm, with 0.2 nm step resolution at a scan rate of 50 nm min^−1 with a 1 nm bandwidth. The spectral accumulations were resolved between 5 and 85 °C in steps of 5 °C. The temperature was controlled by using a Peltier‐type heating system. Each spectrum baseline was processed by subtracting the solvent spectrum from that of the protein and the raw ellipticity data were converted into mean residue molar ellipticity units, [Θ]MR.

Row | Structure (SMILES) | DTT: Conversion rate [1] | DTT: Elapsed time to steady state [1] | DTT: t1/2 of reduction [1] | DTT: k1 [1] | Degree of the fold by FUV-ECD [2] | difference in folded fraction between SS variant and parent [2]
1 | CC[C@H](C)[C@@H]1NC(=O)[C@H](Cc2ccc(O)cc2)NC(=O)[C@H](CC(C)C)NC(=O)[C@H](CCCNC(=N)N)NC(=O)[C@H](C(C)C)NC(=O)[C@@H](N)CSSC[C@@H](C(=O)O)NC(=O)[C@@H]2CCCN2C(=O)[C@@H]2CCCN2C(=O)[C@@H]2CCCN2C(=O)[C@H](CCCNC(=N)N)NC(=O)CNC(=O)[C@H](CO)NC(=O)[C@H](CO)NC(=O)[C@@H]2CCCN2C(=O)CNC(=O)CNC(=O)[C@H](CC(=O)O)NC(=O)[C@H](CCCCN)NC(=O)[C@H](CC(C)C)NC(=O)[C@H](Cc2c[nH]c3ccccc23)NC(=O)[C@H](CCC(N)=O)NC1=O [E2_SS] (H-CVRLYIQWLKDGGPSSGRPPPC-OH; disulfide 1-22) | 100% | 5 h | 1.03 h | 0.0673 M⁻¹ s⁻¹ | 51.8% | 48%
2 | CC[C@H](C)[C@@H]1NC(=O)[C@H](Cc2ccc(O)cc2)NC(=O)[C@H](CC(C)C)NC(=O)[C@H](CCCNC(=N)N)NC(=O)[C@H](C(C)C)NC(=O)[C@@H](NC(=O)[C@H](CCC(=O)O)NC(=O)[C@H](CCC(=O)O)NC(=O)[C@H](CCC(=O)O)NC(=O)[C@H](CCSC)NC(=O)[C@H](CCC(N)=O)NC(=O)[C@H](CCCCN)NC(=O)[C@H](CO)NC(=O)[C@H](CC(C)C)NC(=O)[C@@H](N)CC(=O)O)CSSC[C@@H](C(=O)O)NC(=O)[C@@H]2CCCN2C(=O)[C@@H]2CCCN2C(=O)[C@@H]2CCCN2C(=O)[C@H](CCCNC(=N)N)NC(=O)CNC(=O)[C@H](CO)NC(=O)[C@H](CO)NC(=O)[C@@H]2CCCN2C(=O)CNC(=O)CNC(=O)[C@H](CC(=O)O)NC(=O)[C@H](CCCCN)NC(=O)[C@H](CC(C)C)NC(=O)[C@H](Cc2c[nH]c3ccccc23)NC(=O)[C@H](CCC(N)=O)NC1=O [E11_SS] (H-DLSKQMEEECVRLYIQWLKDGGPSSGRPPPC-OH; disulfide 10-31) | ≈84% | 138 h | 27.65 h | 0.00253 M⁻¹ s⁻¹ | 96.0% | 28%
3 | CC[C@H](C)[C@@H]1NC(=O)[C@H](Cc2ccc(O)cc2)NC(=O)[C@H](CC(C)C)NC(=O)[C@H](CCCNC(=N)N)NC(=O)[C@H](C(C)C)NC(=O)[C@@H](NC(=O)[C@H](CCC(=O)O)NC(=O)[C@H](CCC(=O)O)NC(=O)[C@@H](N)CCC(=O)O)CSSC[C@@H](C(=O)O)NC(=O)[C@@H]2CCCN2C(=O)[C@@H]2CCCN2C(=O)[C@@H]2CCCN2C(=O)[C@H](CCCNC(=N)N)NC(=O)CNC(=O)[C@H](CO)NC(=O)[C@H](CO)NC(=O)[C@@H]2CCCN2C(=O)CNC(=O)CNC(=O)[C@H](CC(=O)O)NC(=O)[C@H](CCCCN)NC(=O)[C@H](CC(C)C)NC(=O)[C@H](Cc2c[nH]c3ccccc23)NC(=O)[C@H](CCC(N)=O)NC1=O [E5_SS] (H-EEECVRLYIQWLKDGGPSSGRPPPC-OH; disulfide 4-25) | 95% | 9 to 10 h | 1.92 h | 0.0363 M⁻¹ s⁻¹ | 63.4% | 14%

— publication PMC7079008, “Compactness of Protein Folds Alters Disulfide‐Bond Reducibility by Three Orders of Magnitude: A Comprehensive Kinetic Case Study on the Reduction of Differently Sized Tryptophan Cage Model Proteins” (Chembiochem, 2019)
